≈ marks a conversion by molar mass, not a printed value. Where “and” joins values, the source holds several entries; their conditions need not be identical. Equal entries are not always repeated.
Tests used:
Acinetobacter baumannii = experiment: microbe, parasite or virus in culture; details: ATCC 19606, 18 h, ASSAY_TEST Inhibition of Bacterial Growth, detection method Absorption (OD600), MEDIA CAMHB, plate type 384well, NBS, CORNING #3640
Description: Antibacterial activity against Acinetobacter baumannii ATCC 19606 (CO-ADD:GN_034); MIC in CAMBH media using NBS plates, by OD600

HEK293 = experiment: cells; format: functional, Homo sapiens, ATCC CRL1573; details: ASSAY_TEST Inhibition of Cell Viability, detection method Resazurin, Fluorescence (ex560/em590), MEDIA DMEM with 10% FBS, plate type 384well, TC, CORNING #3712, time 18 hr
Escherichia coli = experiment: microbe, parasite or virus in culture; details: ATCC 25922, 18 h, ASSAY_TEST Inhibition of Bacterial Growth, detection method Absorption (OD600), MEDIA CAMHB, plate type 384well, NBS, CORNING #3640
Description: Antibacterial activity against Escherichia coli ATCC 25922 (CO-ADD:GN_001); MIC in CAMBH media using NBS plates, by OD(600)

Candida albicans = experiment: microbe, parasite or virus in culture; details: ATCC 90028, ASSAY_TEST Inhibition of Fungal Growth, detection method Absorption (OD530), plate type 384well, NBS, CORNING #3640
Description: Antifungal activity against Candida albicans ATCC 90028 (CO-ADD:FG_001); MIC in YNB media using NBS plates, by OD630

Klebsiella pneumoniae = experiment: microbe, parasite or virus in culture; details: ATCC 700603, 18 h, ASSAY_TEST Inhibition of Bacterial Growth, detection method Absorption (OD600), MEDIA CAMHB, plate type 384well, NBS, CORNING #3640
Description: Antibacterial activity against Klebsiella pneumoniae MDR ATCC 70063 (CO-ADD:GN_003); MIC in CAMBH media using NBS plates, by OD(600)

Pseudomonas aeruginosa = experiment: microbe, parasite or virus in culture; details: ATCC 27853, 18 h, ASSAY_TEST Inhibition of Bacterial Growth, detection method Absorption (OD600), MEDIA CAMHB, plate type 384well, NBS, CORNING #3640
Description: Antibacterial activity against Pseudomonas aeruginosa ATCC 27853 (CO-ADD:GN_042); MIC in CAMBH media using NBS plates, by OD(600)

Staphylococcus aureus = experiment: microbe, parasite or virus in culture; details: ATCC 43300, 18 h, ASSAY_TEST Inhibition of Bacterial Growth, detection method Absorption (OD600), MEDIA CAMHB, plate type 384well, NBS, CORNING #3640
Description: Antibacterial activity against Staphylococcus aureus MRSA ATCC 43300 (CO-ADD:GP_020); MIC in CAMBH media, using NBS plates, by OD(600)

[1] = Homo sapiens, ATCC CRL1573, HEK293, read-out: CC50

Description for Cryptococcus neoformans: Antifungal activity against Cryptococcus neoformans H99 ATCC 208821 (CO-ADD:FG_002); MIC in YNB media using NBS plates, by Resazurin OD(600-570)

Compound | MIC (Acinetobacter baumannii) | CC50 (HEK293; [1]) [µg/mL] | MIC (Escherichia coli) | MIC (Candida albicans) | MIC (Cryptococcus neoformans) | MIC (Klebsiella pneumoniae) | MIC (Pseudomonas aeruginosa) | MIC (Staphylococcus aureus) | CC50 (HEK293) [µg/mL]
CC(=O)Nc1cc(C(=O)Nc2cc(C(=O)Nc3nc(C(=O)NCCCN(C)C)c(CCC(C)C)s3)n(C)c2)n(C)c1 | > 32 µg/mL | > 32 | > 32 µg/mL | > 32 µg/mL | 16 µg/mL | > 32 µg/mL | > 32 µg/mL | 16 µg/mL | 
CN(C)CCNC(=O)c1cc(NC(=O)c2cc(NC(=O)c3ccc(/C=C/c4ccc(N(C)C)cc4)nc3)cn2C)cn1C.O=C(O)C(F)(F)F | > 32 µg/mL | 2.17 | > 32 µg/mL | 1 µg/mL |  | > 32 µg/mL | > 32 µg/mL | 1 µg/mL | 
COCCOC1CCN(C(=O)c2cc(NC(=O)c3cc(NC(=O)c4ccc(/C=C/c5ccc(OC)cc5)nc4)cn3C)cn2C)CC1.O=S(=O)(O)O | > 32 µg/mL | 15.5 | > 32 µg/mL | > 32 µg/mL | > 32 µg/mL | > 32 µg/mL | > 32 µg/mL | > 32 µg/mL | 
Cn1cc(NC(=O)c2ccc(/C=C/c3cnc4ccccc4c3)cc2)cc1C(=O)NCCN1CCOCC1.O=C(O)C(F)(F)F.O=C(O)C(F)(F)F | > 32 µg/mL | 2.42 | > 32 µg/mL | > 32 µg/mL | 32 µg/mL | > 32 µg/mL | > 32 µg/mL | 2 µg/mL | 
COc1cccc(/C=C/c2ccc(C(=O)Nc3cc(C(=O)Nc4cc(C(=O)NCCN5CCCCC5)n(CCCc5ccccc5)c4)n(C)c3)cc2)c1.O=C(O)C(F)(F)F | > 32 µg/mL | 16 | > 32 µg/mL | > 32 µg/mL | > 32 µg/mL | > 32 µg/mL | > 32 µg/mL | > 32 µg/mL | 
Cn1cc(NC(=O)c2ccc(/C=C/c3cnc4ccccc4c3)cc2)cc1C(=O)Nc1cc(C(=O)NCCN2CCOCC2)n(CCCc2ccccc2)c1.O=C(O)C(F)(F)F.O=C(O)C(F)(F)F | > 32 µg/mL |  | > 32 µg/mL | > 32 µg/mL | 4 µg/mL and 8 µg/mL | > 32 µg/mL | > 32 µg/mL | > 32 µg/mL | 
CC(C)n1cc(NC(=O)c2cc(NC(=O)c3ccc(/C=C/c4cnc5ccccc5c4)cc3)cn2C)cc1C(=O)NCCN1CCOCC1.O=C(O)C(F)(F)F.O=C(O)C(F)(F)F | > 32 µg/mL | 2.81 | > 32 µg/mL | 32 µg/mL | 16 µg/mL | > 32 µg/mL | > 32 µg/mL | 1 µg/mL | 
Cn1cc(NC(=O)c2ccc(/C=C/c3cnc4ccccc4c3)cc2)cc1C(=O)Nc1cc(C(=O)NCCN2CCOCC2)n(CCCN=[N+]=[N-])c1.O=C(O)C(F)(F)F.O=C(O)C(F)(F)F | > 32 µg/mL | 4.48 | > 32 µg/mL | > 32 µg/mL | 16 µg/mL | > 32 µg/mL | > 32 µg/mL | 2 µg/mL | 
COc1ccc(C(=N)Nc2cc(C(=O)Nc3nc(C(=O)NCCN4CCOCC4)c(CCc4ccccc4)s3)n(C)c2)cc1.O=C(O)C(F)(F)F.O=C(O)C(F)(F)F | > 32 µg/mL | 8.88 | > 32 µg/mL | > 32 µg/mL |  | > 32 µg/mL | > 32 µg/mL | 8 µg/mL | 
Cn1cc(NC(=O)c2cc(NC(=O)c3ccc(/C=C/c4cnc5ccccc5c4)cc3)cn2C)cc1C(=O)NCCC(=N)N.O=C(O)C(F)(F)F.O=C(O)C(F)(F)F | > 32 µg/mL | 6.55 | > 32 µg/mL | 32 µg/mL | 8 µg/mL | > 32 µg/mL | > 32 µg/mL | > 32 µg/mL | 
Cn1cc(NC(=O)c2cc(NC(=O)c3ccc(/C=C/c4ccc5nonc5c4)cc3)cn2C)cc1C(=O)NCCN1CCOCC1.O=C(O)C(F)(F)F | > 32 µg/mL |  | > 32 µg/mL | > 32 µg/mL | > 32 µg/mL | > 32 µg/mL | > 32 µg/mL | > 32 µg/mL | 
CC(C)CCc1sc(NC(=O)c2cc(NC(=O)c3cc(NC(=N)N)cn3C)cn2C)nc1C(=O)NCCCN(C)C.O=C(O)C(F)(F)F.O=C(O)C(F)(F)F | > 32 µg/mL | 19.9 | > 32 µg/mL | > 32 µg/mL | 4 µg/mL | > 32 µg/mL | > 32 µg/mL | 16 µg/mL | 
COc1cccc(/C=C/c2ccc(C(=O)Nc3cc(C(=O)Nc4cc(C(=O)NCCN5CCOCC5)n(C)c4)n(C)c3)cc2)c1.O=C(O)C(F)(F)F | > 32 µg/mL | 3.75 | > 32 µg/mL | > 32 µg/mL |  | > 32 µg/mL | > 32 µg/mL | > 32 µg/mL | 3.46
CN(C)CCNC(=O)c1cc(NC(=O)c2cc(NC(=O)c3ccc(/C=C/c4ccc(N(C)C)cc4)nc3)cn2C)cn1C.O=C(O)C(F)(F)F.O=C(O)C(F)(F)F | > 32 µg/mL | 1.13 | > 32 µg/mL | 4 µg/mL | 2 µg/mL | > 32 µg/mL | > 32 µg/mL | 2 µg/mL | 
Cn1cc(NC(=O)c2cc(NC=O)cn2C)cc1C(=O)NCCC(=N)N.O=C(O)C(F)(F)F | > 32 µM | > 32 | > 32 µM | > 32 µM | > 32 µM | > 32 µM | > 32 µM | > 32 µM | 
COc1ccc(C(=N)Nc2cc(C(=O)Nc3nc(C(=O)NCCN4CCOCC4)c(CCc4ccccc4)s3)n(C)c2)cc1 | > 32 µg/mL | 7.47 (≈ 12.1 µM) | > 32 µg/mL | > 32 µg/mL | 1 µg/mL | > 32 µg/mL | > 32 µg/mL | 16 µg/mL | 
Cn1cc(NC(=O)c2cc(NC(=O)c3ccc(/C=C/c4cnc5ccccc5c4)cc3)cn2C)cc1C(=O)NCCN1CCCC1=O.O=C(O)C(F)(F)F | > 32 µg/mL | 12.7 | > 32 µg/mL | > 32 µg/mL | > 32 µg/mL | > 32 µg/mL | > 32 µg/mL | > 32 µg/mL | 
Cn1cc(NC(=O)c2cc(NC(=N)c3cnc4ccccc4c3)cn2C)cc1C(=O)NCCC(=N)N.O=C(O)C(F)(F)F.O=C(O)C(F)(F)F.O=C(O)C(F)(F)F | > 32 µg/mL | > 32 | > 32 µg/mL | > 32 µg/mL | > 32 µg/mL | > 32 µg/mL | > 32 µg/mL | > 32 µg/mL | 
Cn1cc(NC(=O)c2ccc(/C=C/c3cnc4ccccc4c3)cc2)cc1C(=O)Nc1nc(C(=O)NCCN2CCOCC2)c(C2CCCCC2)s1.O=C(O)C(F)(F)F.O=C(O)C(F)(F)F | > 32 µg/mL | > 32 | > 32 µg/mL | > 32 µg/mL | > 32 µg/mL | > 32 µg/mL | > 32 µg/mL | > 32 µg/mL | 
CC(=O)Nc1cc(C(=O)Nc2cc(C(=O)NCCC(=N)N)n(C)c2)n(C)c1.O=C(O)C(F)(F)F | > 32 µg/mL | > 32 | > 32 µg/mL | > 32 µg/mL | > 32 µg/mL | > 32 µg/mL | > 32 µg/mL | > 32 µg/mL | 
Cn1cc(NC(=O)c2cc(NC(=O)c3ccc(/C=C/C4CC4)cc3)cn2C)cc1C(=O)NCCN1CCOCC1.O=C(O)C(F)(F)F | > 32 µg/mL |  | > 32 µg/mL | > 32 µg/mL | 32 µg/mL | > 32 µg/mL | > 32 µg/mL | > 32 µg/mL | 
COc1ccc(/C=C/c2ccc(C(=O)Nc3cc(C(=O)Nc4cc(C(=O)NCCN5CCC(OC)CC5)n(C)c4)n(C)c3)cn2)cc1.O=C(O)C(F)(F)F.O=C(O)C(F)(F)F | > 32 µg/mL | 2.7 | > 32 µg/mL | > 32 µg/mL | > 32 µg/mL | > 32 µg/mL | > 32 µg/mL | 1 µg/mL | 
COc1ccc(/C=C/c2ccc(C(=O)Nc3cc(C(=O)Nc4nc(C(=O)NCCN5CCOCC5)c(C5CCCCC5)s4)n(C)c3)cn2)cc1.O=C(O)C(F)(F)F.O=C(O)C(F)(F)F | > 32 µM | 4.56 | > 32 µM | > 32 µM | > 32 µM | > 32 µM | > 32 µM | > 32 µM | 
COc1ccc(/C=C/c2ccc(C(=O)Nc3cc(C(=O)Nc4nc(C(=O)NCCN5CCOCC5)c(CCc5ccccc5)s4)n(C)c3)cn2)cc1.O=C(O)C(F)(F)F.O=C(O)C(F)(F)F | > 32 µg/mL | > 32 | > 32 µg/mL | > 32 µg/mL | > 32 µg/mL | > 32 µg/mL | > 32 µg/mL | > 32 µg/mL | 
Cn1cc(NC(=O)c2cc(NC(=O)C(C)(C)C)cn2C)cc1C(=O)NCCC(=N)N.O=C(O)C(F)(F)F | > 32 µg/mL | 12.3 | > 32 µg/mL | > 32 µg/mL | > 32 µg/mL | > 32 µg/mL | > 32 µg/mL | > 32 µg/mL | 

— ChEMBL document CHEMBL4513139, “CO-ADD screening of University of Strathclyde (UK) compounds”
